The text below walks through data of patent US8436039B2, “Inhibitors of the ATB(0,+) transporter and uses thereof” (Georgia Health Sciences University Research Institute, Inc., priority 2008, dated 2013).

Test [1] concerns the target T1, mouse ATB^0,+ (Mus musculus, UniProt Q9JMA9).
T1 sequence (Q9JMA9 1-638): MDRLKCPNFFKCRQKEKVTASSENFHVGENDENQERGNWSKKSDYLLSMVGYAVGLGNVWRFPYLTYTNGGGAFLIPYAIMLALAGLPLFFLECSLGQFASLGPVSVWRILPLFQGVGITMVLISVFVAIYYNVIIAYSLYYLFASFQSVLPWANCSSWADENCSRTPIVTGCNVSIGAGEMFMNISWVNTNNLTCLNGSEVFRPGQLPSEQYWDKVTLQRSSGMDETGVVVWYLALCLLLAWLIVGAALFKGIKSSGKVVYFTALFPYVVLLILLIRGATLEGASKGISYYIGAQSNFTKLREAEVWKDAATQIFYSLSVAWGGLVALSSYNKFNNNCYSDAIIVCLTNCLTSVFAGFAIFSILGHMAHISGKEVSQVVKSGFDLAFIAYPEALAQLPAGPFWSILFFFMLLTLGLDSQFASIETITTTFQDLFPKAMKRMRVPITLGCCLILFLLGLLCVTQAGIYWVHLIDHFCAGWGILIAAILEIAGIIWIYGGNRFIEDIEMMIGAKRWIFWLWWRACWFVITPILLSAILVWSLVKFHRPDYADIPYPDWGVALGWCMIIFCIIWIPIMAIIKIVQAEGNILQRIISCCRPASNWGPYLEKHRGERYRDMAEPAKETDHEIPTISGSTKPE
In words: Substrate-induced inward currents in X. laevis oocytes expressing mouse ATB^0,+ (two-microelectrode voltage clamp). The following applies: saturation kinetics; NaCl; voltage clamp. It is filed as cell-based. How it is done:
(§1) Capped cRNA from the cloned mouse or human ATB^0,+ cDNA was synthesized using the mMESSAGE mMACHTNE kit (Ambion, Austin, Tex., U.S.A.). Mature oocytes (stage IV or V) from X. laevis were injected with 50 ng of cRNA. Uninjected oocytes served as controls. The oocytes were used for electrophysiological studies 3-6 days after cRNA injection. Electrophysiological studies were performed by the two-microelectrode voltage-clamp method (Nakanishi et al., 2001, J. Physiol. 532, 297-304). Oocytes were superfused with an NaCl-containing buffer (100 mM NaCl, 2 mM KCl, 1 mM MgCl2, 1 mM CaCl2, 3 mM Hepes, 3 mM Mes and 3 mM Tris, pH 7.5), followed by the same buffer containing tryptophan derivatives. The membrane potential was clamped at −50 mV. The differences between the steady-state currents measured in the presence and absence of substrates were considered as the substrate-induced currents. In the analysis of the saturation kinetics of substrate-induced currents, the kinetic parameter K0.5 (i.e. substrate concentration necessary for induction of half-maximal current) was calculated by fitting the values of the substrate-induced currents to the Michaelis-Menten equation. The Na^+ and Cl^− activation kinetics of substrate-induced currents were analysed by measuring the substrate-specific currents in the presence of increasing concentrations of Na^+ (concentration of Cl^− kept constant at 100 mM) or in the presence of increasing concentrations of Cl^− (concentration of Na^+ kept constant at 100 mM). In these experiments, the composition of the superfusion buffer was modified to contain 2 mM potassium gluconate, 1 mM MgSO4 and 1 mM calcium gluconate in place of KCl, MgCl2 and CaCl2 respectively. The data from these experiments were analysed by the Hill equation to determine the Hill coefficient (h; number of Na^+ and Cl^− ions involved in the activation process). The kinetic parameters were determined by using the commercially available computer program Sigma Plot, version 6.0 (SPSS, Chicago, Ill., U.S.A.). Uninjected oocytes were used to determine the currents induced by tryptophan derivatives due to entry via transporters that may be constitutively expressed in the oocytes. At a concentration of 2.5 mM, the currents induced by these compounds were in the range of 0-3 nA in uninjected oocytes. These currents were less than 2% of the corresponding currents induced in ATB^0,+ cRNA-injected oocytes. Therefore the endogenous currents associated with the constitutively expressed transporters were not considered in the analysis of kinetic parameters of ATB^0,+ transport activity.
The above studies with the mammalian cell expression system have focused on the interaction of 1-methyltryptophan and other tryptophan derivatives with ATB^0,+ by examining the effects of these compounds on the transporter-mediated glycine uptake. These studies have shown convincingly that 1-methyltryptophan interacts with ATB^0,+, with the L-isomer having much higher affinity for the transporter than the D-isomer. However, these studies have not shown whether or not 1-methyltryptophan is actually a transportable substrate for ATB^0,+. It is possible that 1-methyltryptophan inhibits ATB^0,+-mediated glycine uptake simply by blocking the interaction of glycine with the substrate-binding site of the transporter, rather than by actually competing with glycine for the transport process. […] We wanted to know whether 1-methyltryptophan can actually be transported by ATB^0,+. For this, we used the X. laevis oocyte expression system. Since the transport process mediated by ATB^0,+ is electrogenic, exposure of ATB^0,+-expressing oocytes to transportable substrates will induce an inward current in an Na^+- and Cl^−-dependent manner. Exposure of the same oocytes to blockers will interfere with currents induced by transportable substrates, but will not induce currents by themselves. […]

The target of test [2] is T2, human ATB^0,+ (Homo sapiens, UniProt Q9UN76).
T2 construct: The human ATB^0,+ cDNA was cloned from an MCF7 cell (a human mammary epithelial cancer cell line) cDNA library; expressed in transfected cells; host or cells: Xenopus laevis oocytes injected with 50 ng capped cRNA
T2 sequence (Q9UN76 1-642): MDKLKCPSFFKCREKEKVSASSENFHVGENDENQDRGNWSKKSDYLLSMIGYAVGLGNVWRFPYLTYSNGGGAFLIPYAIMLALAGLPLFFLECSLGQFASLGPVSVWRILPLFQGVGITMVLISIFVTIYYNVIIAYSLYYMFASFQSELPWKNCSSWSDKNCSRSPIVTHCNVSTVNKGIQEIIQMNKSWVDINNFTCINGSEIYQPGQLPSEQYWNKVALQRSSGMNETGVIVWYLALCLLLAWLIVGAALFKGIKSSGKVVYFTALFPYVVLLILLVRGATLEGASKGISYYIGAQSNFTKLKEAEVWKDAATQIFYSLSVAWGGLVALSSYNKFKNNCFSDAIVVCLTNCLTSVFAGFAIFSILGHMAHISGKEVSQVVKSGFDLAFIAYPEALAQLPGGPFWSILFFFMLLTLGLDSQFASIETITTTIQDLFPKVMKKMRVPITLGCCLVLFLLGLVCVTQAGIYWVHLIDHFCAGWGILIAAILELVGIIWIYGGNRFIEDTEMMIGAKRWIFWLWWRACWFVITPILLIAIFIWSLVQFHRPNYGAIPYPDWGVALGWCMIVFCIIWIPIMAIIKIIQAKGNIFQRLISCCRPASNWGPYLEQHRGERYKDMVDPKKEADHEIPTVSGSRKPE
The test is described as follows: L-tryptophan-induced inward currents in X. laevis oocytes expressing human ATB^0,+. It is filed as cell-based. Conditions: 20 μM L-tryptophan (sub-saturating). How it is done: as §1, with “Uninjected oocytes were used to determine the currents induced by tryptophan derivatives due to entry via transporters that may be constitutively expressed in the oocytes. At a concentration of 2.5 mM, the currents induced by these compounds were in the range of 0-3 nA in uninjected oocytes. These currents were less than 2% of the corresponding currents induced in ATB^0,+ cRNA-injected oocytes. Therefore the endogenous currents associated with the constitutively expressed transporters were not considered in the analysis of kinetic parameters of ATB^0,+ transport activity.” left out

Test [3] addresses T1, mouse ATB^0,+. In words: Inhibition of ATB^0,+-mediated glycine uptake in HRPE cells expressing cloned mouse ATB^0,+. In kind it is cell-based. Conditions: glycine 10 μM; inhibitor 1 mM; 30 min; NaCl; HRPE cells.
Test [4] has as its target T2, human ATB^0,+. In words: Block of inward currents induced by amino acid mixture simulating plasma in X. laevis oocytes expressing human ATB^0,+. It is filed as cell-based. How it is done: as §1
These studies with α-methyl-DL-tryptophan as a blocker of ATB^0,+ were carried out with L-tryptophan at sub-saturating concentrations. […] Therefore, using the Xenopus oocyte heterologous expression system, we monitored the transport activity of human ATB^0,+ in the presence of an amino acid mixture consisting of 18 different amino acids, each at its respective physiological concentration found in plasma (Glew et al., 2004, Clin. Chim. Acta 342, 179-185) (Table 1). Inward currents were detected under these conditions in oocytes expressing human ATB^0,+. […] We then monitored the ability of α-methyl-DL-tryptophan to block the inward currents induced by the same mixture of amino acids in oocytes expressing human ATB^0,+ (FIG. 4B). […]

The subject of test [5] is CCD841 cells. In words: Cell cycle analysis in normal colon cell line. In kind it is cell-based, human. Conditions: 250 μM; 24 hour. The procedure:
(§2) The mTOR pathway plays a critical role in nutrient signaling in mammalian cells (Wang and Proud, 2006, Physiology (Bethesda) 21: 362-369). Amino acid starvation leads to specific changes in this pathway. We sought evidence for amino acid starvation in ATB^0,+-positive colon cancer cell lines when exposed to α-methyl-L-tryptophan (α-MLT) (250 μM). […] These changes were also accompanied with cell cycle arrest in cancer cell lines (FIG. 16). In the normal cell line CCD841, there was no difference between control and α-MLT-treated cells in terms of percent of cells in difference cell cycle stages. […] The phosphorylation pattern observed in the two cancer cell lines is a hallmark of changes in mTOR pathway in response to amino acid deprivation. Autophagy (self-cannabilism) is another cellular process that is induced when cells undergo amino acid deprivation (Eisenberg-Lerner and Kimchi, 2009, Apoptosis 14: 376-391). To survive in the absence of exogenous essential amino acids during amino acid deprivation, cells engage in autophagic degradation of intracellular macromolecules and organelles as a source of these amino acids. Therefore, we investigated the process of autophagy in LS174T cells with and without exposure to α-MLT for 24 hours. For this, we analyzed the distribution of LC-3 protein. […] Apoptosis was quantified by FACS analysis.

In test [6] the test system is CCD841 cells. The test is described as follows: Autophagy: immunofluorescent localization of LC-3 in normal colon cells. In kind it is cell-based, human. The following applies: absence or presence of α-MLT.
For test [7], the system named is HCT116 and LS174T cells. In words: Apoptosis (sub-G1 cells, FACS) in colon cancer cell lines. It is filed as cell-based, human. The following applies: 72 hours. The procedure:
as §2

For test [8], the system named is HCT116 and LS174T cells. The test is described as follows: mTOR pathway: phosphorylation of S6 protein and S6 kinase in colon cancer cell lines. Conditions: 24 h exposure. It is filed as cell-based, human. The procedure: as §2
The test system of test [9] is HCT116 and LS174T cells. In words: Cell cycle analysis in colon cancer cell lines. The following applies: 250 μM; 24 hour. It is filed as cell-based, human. The procedure: as §2
Test [10] concerns HCT116 and LS174T cells. In words: Amino acid starvation markers: ASNS and CHOP gene induction in ATB^0,+-positive colon cancer cell lines. It is filed as cell-based, human. Conditions: 250 μM; 24 hour exposure. How it is done:
as §2

The test system of test [11] is CCD841 cells. The test is described as follows: mTOR pathway: phosphorylation of S6 protein and S6 kinase in normal colon cell line. In kind it is cell-based, human. The following applies: 24 h exposure. The procedure:
as §2

The subject of another test is LS174T cells. The test is described as follows: Autophagy: immunofluorescent localization of LC-3 in colon cancer cells. In kind it is cell-based, human. Conditions: 24 hours exposure. The procedure:
as §2

`N[C@@H](Cc1c[nH]c2ccccc12)C(=O)O` [L-tryptophan]: the “Michaelis constant (K0.5) of substrate-induced currents” value at mouse ATB^0,+ [1] turned out to be 26 ± 3 µM. Besides, the “inward currents induced by L-tryptophan” value at human ATB^0,+ [2] is reported as around 30 nA. In addition, the “inhibition of ATB^0,+-specific glycine uptake” value against mouse ATB^0,+ [3] was “inhibited”.
`C[C@](N)(Cc1c[nH]c2ccccc12)C(=O)O` [α-methyl-L-tryptophan, α-Methyl-L-Tryptophan]: at human ATB^0,+ [4] (18 amino acids at normal plasma concentrations, read-out: concentration necessary to elicit 50% of maximal inhibition (IC50) of amino acid mixture-induced currents), the IC50 was 18 ± 5 µM. Besides, at human ATB^0,+ [4] (amino acid mixture simulating plasma), the “IC50 of L-isomer relative to DL-form (times less)” value is 14 times. Also, the “percent of cells in different cell cycle stages, control versus treated” value in the test with CCD841 cells [5] was “no difference”. Besides, the autophagy entry in the test with CCD841 cells [6] was “did not undergo autophagy”. In addition, in the test with HCT116 and LS174T cells [7], the “percent of apoptotic cells (cells in sub-G1 phase)” value is “increased the percent of apoptotic cells”. Further, the “phosphorylation of S6 protein and S6 kinase” value in the test on HCT116 and LS174T cells [8] is listed as “decreased phosphorylation”; in the test on CCD841 cells [11], “not in CCD841 cells”. For the same compound, in the test on HCT116 and LS174T cells [9], the “percent of cells in G1 phase” value is listed as “increased significantly”. Also, the “percent of cells in S and G2/M phases” value in the test on HCT116 and LS174T cells [9] is recorded as “decreased”. Besides, the “induction of ASNS and CHOP genes” value in the test on HCT116 and LS174T cells [10] is recorded as “induced”. The “punctate fluorescent signals for LC-3 (autophagy)” value in the test with LS174T cells was “showed clear evidence of such signals”.
